Source: patent publication US6201006A, “Aromatic amidine derivatives useful as selective thrombin inhibitors” (C & C Research Laboratories, priority 1996, dated 2001)

Tests used:
[1] = target: T1, human thrombin (Homo sapiens, UniProt P00734); assay: Inhibitory activity for thrombin (chromogenic substrate hydrolysis, 405 nm); assay type: biochemical; details: for Selectivity (trypsin/thrombin): IC50 for trypsin divided by IC50 for thrombin; for IC50: human thrombin, 20 min, pH 8.0, N-benzoyl-Phe-Val-Arg-p-nitroanilide
T1 construct: purchased Sigma T-6759
Description: 20 μl of each compound of the present invention was dissolved in 50% methanol in various concentrations and then added to each well of a microplate, to each of which 160 μl of the reaction medium containing 125 mM NaCl, 50 mM Tris-HCl (pH 8.0) and 2 mM synthetic substrate (N-benzoyl-Phe-Val-Arg-p-nitroanilide, Sigma B-7632) were added. 20 μl of human thrombin solution (5 units/ml, Sigma T-6759, manufactured by Sigma Co.) containing 0.1% bovine serum albumin was added to each well to initiate the enzymatic reaction. After 20 minutes, the hydrolysis of substrate was determined by measuring the absorbance at 405 nm. […] The selectivity index was calculated by dividing the IC50 value for trypsin by the IC50 value for thrombin. The thrombin inhibitory activity and the trypsin inhibitory activity for the compound of the present invention are shown in the following Table 2.

[2] = system: trypsin; assay: Inhibitory activity for trypsin; assay type: biochemical

| SMILES | Selectivity (trypsin/thrombin) [1] | IC50 [1] [nM] | IC50 [2] [nM] |
| --- | --- | --- | --- |
| CCn1c(CC[C@@H]2CCCN2Cc2c(C(N)=O)sc3ccccc23)cc2ccc(C(=N)N)cc21 [Compound 8] | 48.6 | 9.47 | 460 |
| CCn1c(CC[C@@H]2CCCN2C(=O)Cc2cccc(Cl)c2)cc2ccc(C(=N)N)cc21 [Compound 15] | 30.2 | 20.1 | 608 |
| CCn1c(CC[C@@H]2CCCN2C(=O)C(c2ccccc2)C2CCCC2)cc2ccc(C(=N)N)cc21 (stereo partly drawn) [Compound 30, 1-ethyl-2-[2-[(S)-1-(2-cyclopentyl-2-phenylacetyl)pyrrolidin-2-yl]ethyl]indole-6-carboxamidine] | 46.6 | 9.01 | 420 |
| CCOC(=O)CN[C@@H](C(=O)N1CCC[C@H]1CCc1cc2ccc(C(=N)N)cc2n1CC)c1ccccc1 [Compound 38, ethyl 2-[[(R)-2-[2-[(S)-2-[2-(6-amidino-1ethylindol-2-yl)ethyl]pyrrolidinyl]-2-oxo1-phenyl]ethyl]amino]acetate] | 24.2 | 7.59 | 184 |
| CCOC(=O)C(C(=O)N1CCC[C@H]1CCc1cc2ccc(C(=N)N)cc2n1CC)C1CCCC1 (stereo partly drawn) [Compound 44, ethyl 3-[(S)-2-[2-(6-aminido-1-ethylindol-2-yl)ethyl]pyrrolidinyl]-2-cyclopentyl-3-oxopropanoate] | 33.9 | 9.23 | 313 |
| CCn1c(CC[C@@H]2CCCN2C(=O)CN(C2CC2)S(C)(=O)=O)cc2ccc(C(=N)N)cc21 [Compound 58, 1-ethyl-2-[2-[(S)-1-[2-[cyclopropyl(methylsulfonyl)amino]acetyl]pyrrolidin-2-yl]ethyl]indole-6-carboxamidine] | 17.4 | 3 | 52.2 |
| CCn1c(CC[C@@H]2CCCN2C(=O)[C@H]2CCCN2CC(N)=O)cc2ccc(C(=N)N)cc21 [Compound 114, 1-ethyl-2-[2-[(S)-1-[[(R)-1-(carbamo-ylmethyl)pyrrolidin-2-yl]carbonyl]pyrrolidin-2-yl]ethyl]indole-6-carboxamidine] | 28.8 | 17.4 | 500 |
| CCn1c(CC[C@@H]2CCCN2C(=O)[C@H]2CCCN2C(CCO)C(N)=O)cc2ccc(C(=N)N)cc21 (stereo partly drawn) [Compound 117, 1-ethyl-2-[2-[(S)-1-[[(R)-1-(1-carbamoyl-3-hydroxypropyl)pyrrolidin-2-yl]carbonyl]pyrrolidin-2-yl]-ethyl]indole-6-carboxamidine] | 48.6 | 16.7 | 811 |
| CCn1c(CC[C@@H]2CCCN2C(=O)[C@H]2CCCN2C2CCOC2=O)cc2ccc(C(=N)N)cc21 (stereo partly drawn) [Compound 125, 1-ethyl-2-[2-[(S)-1-[[(R)-1-(2-oxo-3-oxolanyl)pyrrolidin-2-yl]carbonyl]pyrrolidin-2-yl]ethyl]indole-6-carboxamidine] | 34.7 | 22.3 | 775 |
| CCn1c(CC[C@@H]2CCCN2C(=O)[C@H]2CCCN2C(=O)[C@H](C)N)cc2ccc(C(=N)N)cc21 [Compound 143, 1-ethyl-2-[2-[(S)-1-[[(R)-1-((S)-2-aminopropanoyl)pyrrolidin-2-yl]carbonyl]pyrrolidin-2-yl]ethyl]indole-6-carboxamidine] | 75.2 | 5.46 | 410 |
| CCn1c(CC[C@@H]2CCCN2C(=O)[C@H]2CCCN2C(=O)[C@H](C)NS(C)(=O)=O)cc2ccc(C(=N)N)cc21 [Compound 146, 1-ethyl-2-[2-[(S)-1-[[(R)-1-[(S)-2-(methanesulfonylamino)propanoyl]pyrrolidin-2-yl]carbonyl]pyrrolidin-2-yl]-ethyl]indole-6-carboxamidine] | 21.0 | 22.1 | 464 |
| CCn1c(CC[C@@H]2CCCN2C(=O)[C@H]2CCCN2C(=O)C(C)CN)cc2ccc(C(=N)N)cc21 (stereo partly drawn) [Compound 156, 1-ethyl-2-[2-[(S)-1-[[(R)-1-(3-amino-2-methylpropanoyl)pyrrolidin-2-yl]carbonyl]pyrrolidin-2-yl]ethyl]indole-6-carboxamidine] |  | 28.6 |  |
| CCn1c(CC[C@@H]2CCCN2C(=O)[C@H]2CCCN2C(=O)CC(C)N)cc2ccc(C(=N)N)cc21 (stereo partly drawn) [Compound 157, 1-ethyl-2-[2-[(S)-1-[[(R)-1-(3-amino-butanoyl)pyrrolidin-2-yl]carbonyl]pyrrolidin-2-yl]ethyl]indole-6-carboxamidine] |  | 26.9 |  |
| CCn1c(CC[C@@H]2CCCN2C(=O)[C@H]2CCCN2C(=O)CCNS(C)(=O)=O)cc2ccc(C(=N)N)cc21 [Compound 158, 1-ethyl-2-[2-[(S)-1-[[(R)-1-[3-[(methanesulfonyl)amino]propanoyl]pyrrolidin-2-yl]carbonyl]pyrrolidin-2-yl]ethyl]indole-6-carboxamidine] |  | 5.5 |  |
| CCn1c(CC[C@@H]2CCCN2C(=O)[C@H]2CCCN2C(=O)C[C@H](NS(C)(=O)=O)C(=O)O)cc2ccc(C(=N)N)cc21 [Compound 163, 4-[(R)-2-[[(S)-2-[2-(6-amidino-1-ethylindol-2-yl)ethyl]pyrrolidinyl]carbonyl]pyrrolidinyl]-(S)-2-[(methanesulfonyl)amino]-4-oxobutanoic acid] | 25.6 | 19.4 |  |
| CCn1c(CC[C@@H]2CCCN2C(=O)[C@H]2CCCN2C(=O)C2CCCNC2)cc2ccc(C(=N)N)cc21 (stereo partly drawn) [Compound 168, 1-ethyl-2-[2-[(S)-1-[[(R)-1-(3-piperidinylcarbonyl)pyrrolidin-2-yl]carbonyl]pyrrolidin-2-yl]ethyl]indole-6-carboxamidine] |  | 31.6 |  |
| CCn1c(CC[C@@H]2CCCN2C(=O)[C@H]2CCCN2C(=O)C2CCNCC2)cc2ccc(C(=N)N)cc21 [Compound 169, 1-ethyl-2-[2-[(S)-1-[[(R)-1-[(4-piperidinyl)carbonyl]pyrrolidin-2-yl]carbonyl]pyrrolidin-2-yl]ethyl]indole-6-carboxamidine] |  | 30.2 |  |
| CCCC(CCC)C(=O)N1CCC[C@@H]1C(=O)N1CCC[C@H]1CCc1cc2ccc(C(=N)N)cc2n1CC [Compound 173, 1-ethyl-2-[2-[(S)-1-[[(R)-1-(2-propylpentanoyl)pyrrolidin-2-yl]carbonyl]pyrrolidin-2-yl]ethyl]indole-6-carboxamidine] |  | 34.6 |  |
| CCOC(=O)CC(=O)N1CCC[C@@H]1C(=O)N1CCC[C@H]1CCc1cc2ccc(C(=N)N)cc2n1CC [Compound 174, ethyl 3-[(R)-2-[[(S)-2-[2-(6-amidino-1-ethylindol-2-yl)ethyl]pyrrolidinyl]carbonyl]pyrrolidinyl]-3-oxopropanoate] | 25.7 | 16.2 |  |
| CCn1c(CC[C@@H]2CCCN2C(=O)[C@H]2CCCN2C(=O)CC(N)=O)cc2ccc(C(=N)N)cc21 [Compound 175, 1-ethyl-2-[2-[(S)-1-[[(R)-1-(2-carbamoylacetyl)pyrrolidin-2-yl]carbonyl]pyrrolidin-2-yl]ethyl]indole-6-carboxamidine] |  | 9.92 |  |
| CCOC(=O)CCC(=O)N1CCC[C@@H]1C(=O)N1CCC[C@H]1CCc1cc2ccc(C(=N)N)cc2n1CC [Compound 176, ethyl 4-[(R)-2-[[(S)-2-[2-(6-amidino-1-ethylindol-2-yl)ethyl]pyrrolidinyl]carbonyl]pyrrolidinyl]-4-oxobutanoate] | 20.7 | 21.7 |  |
| CCn1c(CC[C@@H]2CCCN2C(=O)[C@H]2CCC(=O)N2CC(N)=O)cc2ccc(C(=N)N)cc21 [Compound 187, 1-ethyl-2-[2-[(S)-1-[[(R)-1-(carbamoylmethyl)-5-oxo-pyrrolidin-2-yl]carbonyl]pyrrolidin-2-yl]ethyl]indole-6-carboxamidine] |  | 25.6 |  |
| CCn1c(CC[C@@H]2CCCN2C(=O)C2CCCCN2CC(=O)OC)cc2ccc(C(=N)N)cc21 (stereo partly drawn) [Compound 192, methyl-2-[2-[[(S)-2-[2-(6-amidino-1-ethylindol-2-yl)ethyl]pyrrolidinyl]carbonyl]piperidinyl]acetate] |  | 33.8 |  |
| CCn1c(CC[C@@H]2CCCN2C(=O)C2CCCNC2)cc2ccc(C(=N)N)cc21 (stereo partly drawn) [Compound 194, 1-ethyl-2-[2-[(S)-1-[(3-piperidinyl)carbonyl]pyrrolidin-2-yl]ethyl]indole-6-carboxamidine] |  | 31.7 |  |
| CCOC(=O)C1CCCN1CC(=O)N1CCC[C@H]1CCc1cc2ccc(C(=N)N)cc2n1CC (stereo partly drawn) [Compound 196, ethyl 1-[2-[(S)-2-[2-(6-amidino-1-ethylindol-2-yl)ethyl]pyrrolidinyl]-2-oxoethyl]pyrrolidine-2-carboxylate] | 14.4 | 37.2 |  |
| CCOC(=O)Cn1c(CC[C@@H]2CCCN2C(=O)[C@H]2CCCN2C(C)=O)cc2ccc(C(=N)N)cc21 [Compound 222, ethyl 2-[2-[2-[(S)-1-[((R)-1-acetylpyrrolidin-2-yl)carbonyl]pyrrolidin-2-yl]ethyl]-6-amidinoindolyl]acetate] |  | 11.4 |  |
| CC(=O)N1CCC[C@@H]1C(=O)N1CCC[C@H]1CCc1cc2ccc(C(=N)N)cc2n1CC(N)=O [Compound 224, 2-[2-[(S)-1-[((R)-1-acetylpyrrolidin-2-yl)carbonyl]pyrrolidin-2-yl]ethyl]-1-(carbamoylmethyl)indole-6-carboxamidine] |  | 24.1 |  |
| N=C(N)c1ccc2cc(CC[C@H]3CCCN3C(=O)Cc3ccccc3)ccc2c1 [Compound 244, 6-[2-[(S)-1-(2-phenylacetyl)pyrrolidine-2-yl]ethyl]naphthalene-2-carboxamidine] |  | 53.6 |  |
